Source: ChEMBL document CHEMBL2440080, “Synthesis and biological evaluation of novel acylhydrazone derivatives as potential antitumor agents” (Bioorg Med Chem, 2013)

How the values were obtained:
[1] = system: IGROV-1; assay: Cytotoxicity against human IGROV1 cells after 48 hrs by sulforhodamine B assay; format: functional; conditions: IGROV-1, 48 h
[2] = system: SK-OV-3; assay: Cytotoxicity against human SKOV3 cells after 48 hrs by sulforhodamine B assay; format: functional; conditions: SK-OV-3, 48 h
[3] = system: ACHN; assay: Cytotoxicity against human ACHN cells after 48 hrs by sulforhodamine B assay; format: functional
[4] = system: SN12C; assay: Cytotoxicity against human SN12C cells after 48 hrs by sulforhodamine B assay; format: functional
[5] = system: 786-0; assay: Cytotoxicity against human 786-0 cells after 48 hrs by sulforhodamine B assay; format: functional; conditions: 786-0, 48 h
[6] = system: HCC 2998; assay: Cytotoxicity against human HCC2998 cells after 48 hrs by sulforhodamine B assay; format: functional; conditions: HCC 2998, 48 h
[7] = system: HOP-92; assay: Cytotoxicity against human HOP92 cells after 48 hrs by sulforhodamine B assay; format: functional; conditions: HOP-92, 48 h
[8] = system: MDA-MB-231; assay: Cytotoxicity against human MDA-MB-231 cells after 48 hrs by sulforhodamine B assay; format: functional; conditions: MDA-MB-231, 48 h
[9] = system: TK-10; assay: Cytotoxicity against human TK10 cells after 48 hrs by sulforhodamine B assay; format: functional; conditions: TK-10, 48 h
[10] = system: SNB-75; assay: Cytotoxicity against human SNB75 cells after 48 hrs by sulforhodamine B assay; format: functional; conditions: SNB-75, 48 h
[11] = system: SF-295; assay: Cytotoxicity against human SF295 cells after 48 hrs by sulforhodamine B assay; format: functional; conditions: SF-295, 48 h
[12] = system: CAKI-1; assay: Cytotoxicity against human CAKI-1 cells after 48 hrs by sulforhodamine B assay; format: functional; conditions: CAKI-1, 48 h
[13] = system: A549; assay: Cytotoxicity against human A549/ATCC cells after 48 hrs by sulforhodamine B assay; format: functional; conditions: A549, 48 h
[14] = system: LOX IMVI; assay: Cytotoxicity against human LOXIMVI cells after 48 hrs by sulforhodamine B assay; format: functional
[15] = system: MCF7; assay: Cytotoxicity against human MCF7 cells after 48 hrs by sulforhodamine B assay; format: functional; conditions: MCF7, 48 h
[16] = system: SNB-19; assay: Cytotoxicity against human SNB19 cells after 48 hrs by sulforhodamine B assay; format: functional; conditions: SNB-19, 48 h
[17] = system: K562; assay: Cytotoxicity against human K562 cells after 48 hrs by sulforhodamine B assay; format: functional; conditions: K562, 48 h
[18] = system: COLO 205; assay: Cytotoxicity against human COLO205 cells after 48 hrs by sulforhodamine B assay; format: functional; conditions: COLO 205, 48 h
[19] = system: SR; assay: Cytotoxicity against human SR cells after 48 hrs by sulforhodamine B assay; format: functional
[20] = system: SK-MEL-5; assay: Cytotoxicity against human SK-MEL-5 cells after 48 hrs by sulforhodamine B assay; format: functional; conditions: SK-MEL-5, 48 h
[21] = Cytotoxicity against human EKVX cells after 48 hrs by sulforhodamine B assay; format: functional
[22] = system: SK-MEL-28; assay: Cytotoxicity against human SK-MEL-28 cells after 48 hrs by sulforhodamine B assay; format: functional; conditions: SK-MEL-28, 48 h
[23] = system: MOLT-4; assay: Cytotoxicity against human MOLT4 cells after 48 hrs by sulforhodamine B assay; format: functional; conditions: MOLT-4, 48 h
[24] = system: NCI-H460; assay: Cytotoxicity against human NCI-H460 cells after 48 hrs by sulforhodamine B assay; format: functional; conditions: NCI-H460, 48 h
[25] = system: T47D; assay: Cytotoxicity against human T47D cells after 48 hrs by sulforhodamine B assay; format: functional
[26] = system: SF-539; assay: Cytotoxicity against human SF539 cells after 48 hrs by sulforhodamine B assay; format: functional; conditions: SF-539, 48 h
[27] = system: DU-145; assay: Cytotoxicity against human DU145 cells after 48 hrs by sulforhodamine B assay; format: functional; conditions: DU-145, 48 h
[28] = system: M14; assay: Cytotoxicity against human M14 cells after 48 hrs by sulforhodamine B assay; format: functional; conditions: M14, 48 h
[29] = system: HOP-62; assay: Cytotoxicity against human HOP62 cells after 48 hrs by sulforhodamine B assay; format: functional; conditions: HOP-62, 48 h
[30] = system: OVCAR-5; assay: Cytotoxicity against human OVCAR5 cells after 48 hrs by sulforhodamine B assay; format: functional; conditions: OVCAR-5, 48 h
[31] = system: OVCAR-8; assay: Cytotoxicity against human OVCAR8 cells after 48 hrs by sulforhodamine B assay; format: functional; conditions: OVCAR-8, 48 h
[32] = system: SF-268; assay: Cytotoxicity against human SF268 cells after 48 hrs by sulforhodamine B assay; format: functional; conditions: SF-268, 48 h
[33] = system: Malme-3M; assay: Cytotoxicity against human MALME-3M cells after 48 hrs by sulforhodamine B assay; format: functional
[34] = system: NCI-H322M; assay: Cytotoxicity against human NCI-H322M cells after 48 hrs by sulforhodamine B assay; format: functional
[35] = system: HT-29; assay: Cytotoxicity against human HT-29 cells after 48 hrs by sulforhodamine B assay; format: functional; conditions: HT-29, 48 h
[36] = system: SW-620; assay: Cytotoxicity against human SW620 cells after 48 hrs by sulforhodamine B assay; format: functional; conditions: SW-620, 48 h
[37] = system: CCRF-CEM; assay: Cytotoxicity against human CCRF-CEM cells after 48 hrs by sulforhodamine B assay; format: functional
[38] = system: OVCAR-4; assay: Cytotoxicity against human OVCAR4 cells after 48 hrs by sulforhodamine B assay; format: functional; conditions: OVCAR-4, 48 h
[39] = system: HCT-116; assay: Cytotoxicity against human HCT116 cells after 48 hrs by sulforhodamine B assay; format: functional; conditions: HCT-116, 48 h
[40] = system: UACC-62; assay: Cytotoxicity against human UACC62 cells after 48 hrs by sulforhodamine B assay; format: functional; conditions: UACC-62, 48 h
[41] = system: PC-3; assay: Cytotoxicity against human PC3 cells after 48 hrs by sulforhodamine B assay; format: functional; conditions: PC-3, 48 h
[42] = system: UO-31; assay: Cytotoxicity against human UO31 cells after 48 hrs by sulforhodamine B assay; format: functional; conditions: UO-31, 48 h
[43] = system: OVCAR-3; assay: Cytotoxicity against human OVCAR3 cells after 48 hrs by sulforhodamine B assay; format: functional; conditions: OVCAR-3, 48 h
[44] = system: NCI-H23; assay: Cytotoxicity against human NCI-H23 cells after 48 hrs by sulforhodamine B assay; format: functional; conditions: NCI-H23, 48 h
[45] = system: NCI-H522; assay: Cytotoxicity against human NCI-H522 cells after 48 hrs by sulforhodamine B assay; format: functional; conditions: NCI-H522, 48 h
[46] = system: RXF 393; assay: Cytotoxicity against human RXF393 cells after 48 hrs by sulforhodamine B assay; format: functional; conditions: RXF 393, 48 h
[47] = system: A498; assay: Cytotoxicity against human A498 cells after 48 hrs by sulforhodamine B assay; format: functional; conditions: A498, 48 h
[48] = system: NCI/ADR-RES; assay: Cytotoxicity against human NCI/ADR-RES cells after 48 hrs by sulforhodamine B assay; format: functional
[49] = system: HL-60(TB); assay: Cytotoxicity against human HL-60(TB) cells after 48 hrs by sulforhodamine B assay; format: functional; conditions: HL-60, 48 h
[50] = system: MDA-MB-435; assay: Cytotoxicity against human MDA-MB-435 cells after 48 hrs by sulforhodamine B assay; format: functional; conditions: MDA-MB-435, 48 h
[51] = system: RPMI-8226; assay: Cytotoxicity against human RPMI8226 cells after 48 hrs by sulforhodamine B assay; format: functional; conditions: RPMI-8226, 48 h
[52] = system: NCI-H226; assay: Cytotoxicity against human NCI-H226 cells after 48 hrs by sulforhodamine B assay; format: functional; conditions: NCI-H226, 48 h
[53] = system: BT-549; assay: Cytotoxicity against human BT549 cells after 48 hrs by sulforhodamine B assay; format: functional; conditions: BT-549, 48 h
[54] = system: UACC-257; assay: Cytotoxicity against human UACC257 cells after 48 hrs by sulforhodamine B assay; format: functional; conditions: UACC-257, 48 h
[55] = system: SK-MEL-2; assay: Cytotoxicity against human SK-MEL-2 cells after 48 hrs by sulforhodamine B assay; format: functional; conditions: SK-MEL-2, 48 h
[56] = Cytotoxicity against human Hs 578T cells after 48 hrs by sulforhodamine B assay; format: functional
[57] = system: U-251; assay: Cytotoxicity against human U251 cells after 48 hrs by sulforhodamine B assay; format: functional; conditions: U-251, 48 h
[58] = system: HCT-15; assay: Cytotoxicity against human HCT15 cells after 48 hrs by sulforhodamine B assay; format: functional; conditions: HCT-15, 48 h
[59] = system: KM12; assay: Cytotoxicity against human KM12 cells after 48 hrs by sulforhodamine B assay; format: functional; conditions: KM12, 48 h
[60] = system: Mus musculus; assay: Toxicity in athymic nude mouse assessed as survival at 400 mg/kg, ip measured after 2 weeks; format: organism-based; parameters: dose 400 mg/kg, route intraperitoneal; conditions: in vivo, 336 h

## CCN(CC)c1ccc(/C=N/NC(=O)c2ccc(Nc3ccnc(C(F)(F)F)c3)cc2)c(O)c1
[1]
  GI50: 200 nM
[2]
  GI50: 234 nM
[3]
  GI50: 158 nM
[4]
  GI50: 363 nM
[5]
  GI50: 182 nM
[6]
  GI50: 224 nM
[7]
  GI50: 676 nM
[8]
  GI50: 398 nM
[9]
  GI50: 501 nM
[10]
  GI50: 200 nM
[11]
  GI50: 263 nM
[12]
  GI50: 251 nM
[13]
  GI50: 331 nM
[14]
  GI50: 158 nM
[15]
  GI50: 295 nM
[16]
  GI50: 331 nM
[17]
  GI50: 66.1 nM
[18]
  GI50: 275 nM
[19]
  GI50: 251 nM
[20]
  GI50: 324 nM
[21]
  GI50: 195 nM
[22]
  GI50: 204 nM
[23]
  GI50: 162 nM
[24]
  GI50: 204 nM
[25]
  GI50: 331 nM
[26]
  GI50: 200 nM
[27]
  GI50: 501 nM
[28]
  GI50: 316 nM
[29]
  GI50: 251 nM
[30]
  GI50: 479 nM
[31]
  GI50: 398 nM
[32]
  GI50: 200 nM
[33]
  GI50: 389 nM
[34]
  GI50: 316 nM
[35]
  GI50: 282 nM
[36]
  GI50: 339 nM
[37]
  GI50: 120 nM
[38]
  GI50: 251 nM
[39]
  GI50: 158 nM
[40]
  GI50: 251 nM
[41]
  GI50: 501 nM
[42]
  GI50: 57.5 nM
[43]
  GI50: 316 nM
[44]
  GI50: 417 nM
[45]
  GI50: 251 nM
[46]
  GI50: 200 nM
[47]
  GI50: 316 nM
[48]
  GI50: 1000 nM
[49]
  GI50: 251 nM
[50]
  GI50: 490 nM
[51]
  GI50: 126 nM
[52]
  GI50: 331 nM
[53]
  GI50: 501 nM
[54]
  GI50: 339 nM
[55]
  GI50: 398 nM
[56]
  GI50: 219 nM
[57]
  GI50: 200 nM
[58]
  GI50: 100 nM
[59]
  GI50: 398 nM

## COc1ccc(C(=O)N/N=C/c2ccc(O)cc2O)cc1Nc1ccnc(C(F)(F)F)c1
[1]
  GI50: 631 nM
[3]
  GI50: 2510 nM
[7]
  GI50: 316 nM
[9]
  GI50: 501 nM
[10]
  GI50: 794 nM
[11]
  GI50: 794 nM
[12]
  GI50: 631 nM
[14]
  GI50: 501 nM
[60]
  Activity: Non-toxic
[19]
  GI50: 158 nM
[21]
  GI50: 398 nM
[23]
  GI50: 398 nM
[24]
  GI50: 3160 nM
[25]
  GI50: 794 nM
[27]
  GI50: 631 nM
[28]
  GI50: 794 nM
[29]
  GI50: 501 nM
[31]
  GI50: 794 nM
[32]
  GI50: 316 nM
[34]
  GI50: 501 nM
[37]
  GI50: 251 nM
[38]
  GI50: 631 nM
[39]
  GI50: 251 nM
[40]
  GI50: 501 nM
[41]
  GI50: 631 nM
[43]
  GI50: 316 nM
[46]
  GI50: 10000 nM
[48]
  GI50: 7940 nM
[49]
  GI50: 316 nM
[51]
  GI50: 2510 nM
[53]
  GI50: 501 nM
[57]
  GI50: 398 nM
[58]
  GI50: 2510 nM
[59]
  GI50: 1580 nM
